Source: a melting point compilation (Tetko et al.; mined from patent text by program, amines drawn as free bases though some values may be those of a salt)

| SMILES | melting point [°C] |
| --- | --- |
| O=C(CBr)Nc1cc(Cl)ccc1C(=O)O | 156 to 158 |
| O=c1[nH]c2ncc(-c3ccc(O)cc3)nc2n1CC1CCOC1 (stereo not given) | 256 to 258 |
| O=C(NCc1ccccc1)c1nn(-c2ccc(Cl)cc2)c2c1C1CCC2C1 (stereo not given) | 112 to 115 |
| Cc1cc(C)c(S(=O)(=O)NC(CSc2ccccc2)C(F)(F)F)c(C)c1 (stereo not given) | 76 to 78 |
| CC(C)c1ccc(-c2nc(-c3cccc(C(=O)O)c3)ns2)cc1 | 165 to 167 |
| CCc1c(-c2ccc(O)cc2)c2cc(COCCCN(C)C)c3cccc1n32 | 146 to 147 |
| CC#CCOCCCCCCCCCCCCOC(=O)C1CC1 | 38 to 40 |
| COC(=O)C[C@@H](SCc1ccccc1)C(=O)O | 91 to 92 |
| NC(c1ccccc1)C12CC(CN1Cc1ccccc1)C2 (stereo not given) | 63.5 to 64 |
| Cc1ccc(S(=O)(=O)OCC2COc3ccc4nc(C)c(C)nc4c3O2)cc1 (stereo not given) | 153 to 155 |
| CC(=O)OC1CSC(Oc2cccnc2-c2ccccc2)C(OC(C)=O)C1OC(C)=O (stereo not given) | 69 to 101 |
| CCCCCCCCCCCCCCCCS(=O)(=O)NCCCCCCCN(C)C | 56 to 57.5 |
| CCOc1cc2ncc(C#N)c(NCc3ccc(Cl)c(Cl)c3)c2cc1OCC | 163 to 165 |
| CCS(=O)(=O)N(Cc1cccnc1)c1ccc(Cl)cc1 | 104 to 106 |
| COc1nc(Cl)cc2nc(S(=O)(=O)Nc3ccn(C)n3)nn12 | 185 to 187 |
| COc1ccc(-n2nccc2-c2nn(-c3cccc(C(F)(F)F)c3)ccc2=O)cc1 | 173 to 174 |
| CCCCCCCCN1N=C(C)CC1=O | 59 |
| Clc1ncccc1OCCOc1ccccc1 | 77 to 78 |
| Cc1c(NC(=O)N2CC[C@H](O[Si](C)(C)C(C)(C)C)[C@H]2CO)ccc(C#N)c1Cl | 174 to 176 |
| CC(C)(C=O)N1C(=O)c2ccccc2C1=O | 80 to 82 |
| CC1=C(C(=O)OC2CCCC2)C(c2cccc([N+](=O)[O-])c2)C([N+](=O)[O-])=C(C)N1 (stereo not given) | 174 |
| Cn1cc(C(=O)C(=O)N2CCN(c3nc4cc(C(=O)Nc5nc(C(C)(C)C)cs5)ccn4c(=O)c3/C=C/C(=O)O)CC2)nc1N | 210 to 216 |
| CC(=O)Nc1nc2ccccc2c2c(CC(C)C)n(C)nc12 | 130 to 131 |
| C#CCc1c(O)nc(C)nc1O | > 300 |
| CC(C)(C)OC(=O)c1nc(-c2ccccc2)[nH]c1-c1cccnc1 | 196 to 197 |

| SMILES | melting point [°C] |
| --- | --- |
| Cc1nc(NC(=O)NS(=O)(=O)c2ccccc2OC(Cl)=CCl)nc2c1CCO2 | 208 to 210 |
| CCCn1c(=O)c2[nH]c(-c3cc(C)n(CC(=O)Nc4ccc(C)c(C)c4)n3)nc2n(CCC)c1=O | 261 to 265 |
| Clc1ccc(CCOc2ncnc3ncccc23)cc1 | 126 to 128 |
| CCCc1c2nc(C(=O)OCC)cc(NC)c2cc2c(=O)cc(C(=O)OCC)oc12 | 235 to 237 |
| Cc1nc(N(C)C)ncc1OCc1ccccc1 | 73 to 74 |
| CC(=O)OCc1cccc([N+](=O)[O-])c1Br | 60 to 63 |
| COc1ccc(/C=C/C(=O)Nc2ccccc2C(=O)O)cc1 | 194 to 195 |
| Nc1ccc(Cl)cc1S | 70 to 72 |
| CCC1SC(N(C)C(=O)NC)=NN1C(=O)C(C)(C)C (stereo not given) | 144 to 146 |
| CCCc1nc(Cl)nc(NCCO)n1 | 87 to 88 |
| CC(=O)Nc1ccc(C(=O)N(C)Cc2cccc(-c3ccc(CC4SC(=O)NC4=O)cc3)c2)cc1 (stereo not given) | 207 |
| CC(C)C1(C)N=C(c2cc3c(nc2C(=O)O)COC3)NC1=O (stereo not given) | 115 to 118 |
| Brc1ccc2nc(-c3cccnc3)nn2c1 | 176 |
| Cc1ccc(NC(=O)C2C(=O)N(C)c3ccccc3S2(=O)=O)cc1 (stereo not given) | 218 to 220 |
| CC(C)(C)OC(=O)Nc1nc(/C(=N/OC(c2ccccc2)(c2ccccc2)c2ccccc2)C(=O)O)cs1 | 157 to 158 |
| CC(=O)C(CCC(=O)O)(CCC(=O)O)C(C)=O | 176 |
| COC(C)(C)C#Cc1ncn2c1CN(C)C(=O)c1cc(F)ccc1-2 | 149 to 150 |
| Cc1nccn1C[Si](C)(C)Cc1ccc(F)cc1 | 60 to 62 |
| CNC(=O)CC(O)(c1ccccc1)c1ccc2nc(N)n(S(=O)(=O)C(C)C)c2c1 (stereo not given) | 92 to 95 |
| COc1ccc(C(=O)Nc2cc([N+](=O)[O-])ccc2Cl)cc1OC | 231 to 232 |
| COc1ccc2cc(CC(=O)NO)ccc2c1 | 177 to 180 |
| O=C(NC[C@H]1O[C@H]1c1ccccc1)c1ccc(NC(=O)C(F)(F)F)cc1 (racemic) | 190 |
| CC(C(=O)O)c1ccc2oc3ncccc3c(=O)c2c1 (stereo not given) | 194 to 195 |
| C=COCCONC(=O)c1cc(F)c(F)c(F)c1Nc1ccc(I)cc1Cl | 115 to 116 |
| Cc1cnc2[nH]cc(/C=C3\N=C(N4CCCCC4)NC3=O)c2c1 | 320 to 321 |

| SMILES | melting point [°C] |
| --- | --- |
| O=[N+]([O-])c1cccc(CN2CCOCC2)c1 | 48 to 50 |
| CCCCCS(=O)(=O)NC(=O)c1ccc2sc(C)c(Cc3ccc(Cl)cc3Cl)c2c1 | 158 to 159 |
| COC(=O)/C=C/c1ccc(OCc2nc(-c3ccccc3)oc2C)nc1 | 116 to 117 |
| Cc1cc(OCCc2nc(-c3ccccc3)oc2C)ccc1OCC(=O)O | 133 |
| COC(=O)CCN1CCC(NC(=O)OC(C)(C)C)CC1 | 91 to 93 |
| c1ccc(-c2nc3ccc(Cn4ccnc4)cc3nc2-c2ccccc2)cc1 | 159 |
| Cc1noc(NS(=O)(=O)c2cccc3cccnc23)c1C | 176 to 178 |
| CC(C#N)CCC(=O)O (stereo not given) | 31.9 to 32.6 |
| CCc1n[nH]c2cc(-c3nn(C(C)c4oc5ccccc5c(=O)c4-c4cccc(F)c4)c4ncnc(N)c34)ccc12 (stereo not given) | 270 to 273 |
| CC1(C)CC(=NO)c2cc(Br)ccc21 | 115 to 117 |
| CN(C)c1ccc(Br)cn1 | 39 to 41 |
| CCOC(=O)C1=C(C)NC(C)=C(C(=O)OCC)C1c1nc(-c2ccc(OC)cc2)c(-c2ccc(OC)cc2)s1 | 177 to 178 |
| O=C1Cc2c([nH]c3ccc([N+](=O)[O-])cc23)-c2cc(Br)ccc2N1 | > 330 |
| CCOC(=O)C(=O)CC(=O)c1cn(Cc2cccc(F)c2)c2ccccc2c1=O | 174 to 175 |
| Cc1ncccc1Cn1c(CO)nc(C(C)C)c1Sc1cc(Cl)cc(Cl)c1 | 127 |
| CC(C)OC(=O)C(C)Oc1ncn(-c2cccc(C(F)(F)F)c2)n1 (stereo not given) | 97 to 99 |
| CCC(CC)N1C(=O)CCc2c1cc(C)nc2Nc1c(C)cc(C)cc1C | 44 to 46 |
| CC(C)(C)NC(=O)c1ccc(S(=O)(=O)Cl)cc1 | 179 |
| O=C1c2ccccc2-c2nc3ccc(O)cc3c(Cl)c21 | 253 |
| O=C(O)c1cn(Cc2ccccc2)c2cc(N3CCNCC3)c(F)cc2c1=O | 250 to 253 |
| CCN1c2ncccc2C(=O)N(C)c2ccc(-c3ccn(C)c3)nc21 | 187 to 188 |
| CCc1c(C(F)(F)F)noc1NS(=O)(=O)c1ccccc1 | 105 to 106 |
| COc1cc(OC)cc(C(C)CCCc2ccncc2)c1 (stereo not given) | 131 to 133 |
| CCCCC(=O)c1c(-c2ccc3c(Br)c(OCC(=O)O)ccc3c2)oc2ccc(Cl)cc12 | 130 to 132 |
| COc1ccc(Cl)c(Oc2c(C)nc(N3CCOCC3)nc2Cl)c1 | 134 |

| SMILES | melting point [°C] |
| --- | --- |
| CC12CCC(C1)C1(C)Oc3ccc(C(=O)COc4ccc(C(=O)O)c(O)c4)cc3C21C (stereo not given) | 186 to 188 |
| COC(=O)c1ccc(Cl)cc1NC(=O)CSc1ccc([N+](=O)[O-])cc1 | 134 to 137 |
| CC(C)(C)OC(=O)CCc1cc(S(C)(=O)=O)cc(-c2nc(=O)c3ccc(Cl)cc3s2)n1 | 184 |
| O=C(CN1CCCC1)Nc1ccc(-c2cc(-c3c[nH]nc3-c3ccccn3)ccn2)cc1 | 188 |
| CCc1cnc2ccnn2c1NCc1ccc(-c2ccccc2C#N)cc1 | 151 to 153 |
| COc1nc(N2CCN(C(=O)c3ccccc3C(F)(F)F)CC2)ccc1C(=O)NCCC1CC1 | 49 to 51 |
| COc1ccc2nc(NC(=O)C(CC3CCCC3)c3ccc(S(=O)(=O)NCc4cccnc4)cc3)sc2n1 (stereo not given) | 227 to 229 |
| N#Cc1ccc(NC(=O)CBr)cc1 | 166 to 168 |
| CC(C)c1ncc(CN2C(=O)C3(COc4cc5c(cc43)OCO5)c3ccccc32)o1 (stereo not given) | 75 to 77 |
| O=C(O)CCC(NC(=O)c1ccccc1)C(=O)NC(c1ccccc1)c1ccccc1 (stereo not given) | 128 |
| CC(=O)Nc1cccc(-c2ccnc3c(C(=O)c4ccco4)cnn23)c1 | 195 to 196 |
| Oc1nc2ccc(Br)cc2[nH]1 | 305 to 307 |
| O=C(c1cccc(Cl)c1)N1CCc2cc(S(=O)(=O)N3CC(c4ccccc4)NC3=O)ccc21 (stereo not given) | 132 to 136 |
| CN1c2ccc(-c3ccccc3)cc2Sc2cc(-c3ccccc3)ccc21 | 239 to 241 |
| CCc1ccc2c(c1)C1(CCN(C(=O)Nc3cnc(-c4ccccc4)cn3)CC1)OC2=O | 176 to 178 |
| N#Cc1ccc(C(=O)N[C@@H](Cc2c[nH]c3ccccc23)C(=O)O)cc1 | 125 to 127 |
| C(=Cc1cc(OCc2ccccc2)cc(OCc2ccccc2)c1)c1ccc(OCc2ccccc2)cc1 | 156 to 158 |
| COc1cc(C(=O)O)ccc1Cn1ncc2ccc(NC(=O)CC3CCCC3)cc21 | 254 to 256 |
| CC1(C)OC(=O)C(Oc2ccccc2)=C1c1ccc(S(C)(=O)=O)cc1 | 135 to 136 |
| Cc1nc(C(=O)N2CCCC2)c2n1-c1ccc(Cl)cc1C(c1ccccc1F)=NC2 | 220 to 221 |
| CC(=O)NNC(=O)N(O)C1c2ccccc2Oc2ccccc21 | 173 to 176 |
| Cn1ccc(S(N)(=O)=O)n1 | 156 to 158 |
| CC(Oc1ccccc1)C(=O)NCCO[N+](=O)[O-] (stereo not given) | 74 to 75 |
| CCCc1c2nc(C(=O)OCC)cc(C#N)c2cc2c(=O)cc(C(=O)OCC)oc12 | 207 to 209 |
| CCC(=O)NS(=O)(=O)c1ccc(-c2cc(-c3nc(-c4ccc(C(F)(F)F)cc4)cc(C(F)(F)F)n3)ccn2)s1 | 257 |
